Reference: the supplement of paper PMC10331698
± gives the standard deviation of the averaged measurements.

Experiments:
Assay in all cases: level (log10 ratio to DMSO vehicle control); higher = higher biomarker level / cell amount than vehicle control
Conditions in all cases: in DMSO
[1] = compound: O=C(O)C(F)(F)OC(F)(F)C(F)(F)OC(F)(F)C(F)(F)C(F)(F)C(F)(F)F [Perfluoro-3,6-dioxadecanoic acid]
Method: (§1)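 BioMAP Diversity Plus panel of 12 human primary cell co-culture systems (3C, 4H, LPS, SAg, BT, BF4T, BE3C, CASM3C, HDF3CGF, KF3CT, MyoF, Mphg). Compounds were added 1 h before stimulation and left for 24 h (MyoF 48 h; BT 72 h for soluble read-outs or 6 d for IgG). Biomarkers were read by ELISA, cytotoxicity by SRB, PBMC viability and proliferation by Alamar Blue. Each well value was divided by the mean of 8 DMSO control wells on the same plate and log10 transformed; duplicate blinded samples were tested at 4 concentrations.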

[2] = compound: Cn1cnc([N+](=O)[O-])c1Sc1ncnc2[nH]cnc12 [Azathioprine]
Method: as §1

[3] = compound: O=C(O)C(F)(F)C(F)(F)C(F)(F)C(F)(F)C(F)(F)C(F)(F)C(F)(F)C(F)(F)C(F)(F)C(F)(F)C(F)(F)C(F)(F)F [Perfluorotridecanoic acid]
Method: as §1

[4] = compound: O=S(=O)(O)C(F)(F)C(F)(F)C(F)(F)C(F)(F)C(F)(F)C(F)(F)C(F)(F)C(F)(F)F [Perfluorooctanesulfonic acid]
Method: as §1

[5] = compound: CNS(=O)(=O)C(F)(F)C(F)(F)C(F)(F)C(F)(F)C(F)(F)C(F)(F)C(F)(F)C(F)(F)F [N-Methylperfluorooctanesulfonamide]
Method: as §1

[6] = compound: O=C(O)C(F)(F)C(F)(F)C(F)(F)C(=O)O [Hexafluoroglutaric acid]
Method: as §1

Test System	level (log10) ([1]; 6700 nM)	level (log10) ([1]; 20000 nM)	level (log10) ([1]; 60000 nM)	level (log10) ([2]; 1400 nM)	level (log10) ([2]; 4200 nM)	level (log10) ([2]; 13000 nM)	level (log10) ([2]; 38000 nM)	level (log10) ([3]; 1500 nM)	level (log10) ([3]; 4400 nM)	level (log10) ([3]; 13000 nM)	level (log10) ([3]; 40000 nM)	level (log10) ([4]; 6700 nM)	level (log10) ([4]; 20000 nM)	level (log10) ([4]; 60000 nM)	level (log10) ([5]; 6700 nM)	level (log10) ([5]; 20000 nM)	level (log10) ([5]; 60000 nM)	level (log10) ([6]; 6700 nM)	level (log10) ([6]; 20000 nM)	level (log10) ([6]; 60000 nM)
lMphg:CD40	0.002 ± 0.047	-0.0175 ± 0.035	-0.102 ± 0.023	-0.0125 ± 0.04	-0.0205 ± 0.013	-0.025 ± 0.0014	-0.106 ± 0.03	-0.0245 ± 0.021	-0.0355 ± 0.0064	-0.051 ± 0.0071	-0.2 ± 0.057	-0.027 ± 0.013	-0.0025 ± 0.005	0.02 ± 0.0014	-0.054 ± 0.042	-0.0365 ± 0.021	0.0255 ± 0.063	-0.0015 ± 0.012	-0.013 ± 0.0014	-0.066 ± 0.061
lMphg:CD62E/E-Selectin	0.0095 ± 0.016	-0.0035 ± 0.037	0.0135 ± 0.015	-0.037 ± 0.045	-0.031 ± 0.048	-0.064 ± 0.0085	-0.148 ± 0.051	-0.038 ± 0.0028	-0.045 ± 0.0014	-0.0395 ± 0.029	-0.007 ± 0.0071	-0.0015 ± 0.023	0.0385 ± 0.013	0.186 ± 0.029	-0.12 ± 0.034	-0.214 ± 0.03	-0.182 ± 0.058	-0.0065 ± 0.026	0.001 ± 0.02	-0.0165 ± 0.043
lMphg:CD69	-0.0505 ± 0.021	-0.0425 ± 0.0021	-0.196 ± 0.063	0.027 ± 0.013	-0.0205 ± 0.029	-0.004 ± 0.0028	0.022 ± 0.011	-0.0045 ± 0.019	-0.0685 ± 0.018	-0.066 ± 0.04	-0.0555 ± 0.013	-0.046	-0.0585 ± 0.029	-0.102 ± 0.091	-0.0715 ± 0.03	-0.0165 ± 0.013	0.061 ± 0.027	-0.037 ± 0.028	-0.0325 ± 0.0021	-0.0525 ± 0.015
lMphg:CD106/VCAM-1	-0.004 ± 0.018	-0.0055 ± 0.021	-0.0585 ± 0.039	0 ± 0.0057	-0.003 ± 0.0085	-0.036	-0.0835 ± 0.025	-0.018 ± 0.0014	-0.0305 ± 0.012	-0.0715 ± 0.018	-0.384 ± 0.1	-0.009 ± 0.0099	-0.005 ± 0.013	-0.058 ± 0.04	0.015 ± 0.014	0.0515 ± 0.0092	0.0645 ± 0.026	0.0045 ± 0.011	-0.005 ± 0.0057	-0.0255 ± 0.00071
lMphg:CXCL8/IL-8	0.01 ± 0.0057	0.0595 ± 0.025	0.0695 ± 0.021	-0.0045 ± 0.047	-0.042 ± 0.021	0.0375 ± 0.0064	0.0825 ± 0.019	-0.0575 ± 0.0021	-0.0665 ± 0.012	-0.0245 ± 0.00071	-0.0175 ± 0.021	-0.0385 ± 0.018	-0.003 ± 0.025	0.0585 ± 0.1	-0.0025 ± 0.0078	0.112 ± 0.022	0.118 ± 0.044	0.014 ± 0.0042	0.044 ± 0.072	-0.0185 ± 0.0021
lMphg:IL-1alpha	-0.0105 ± 0.056	-0.021 ± 0.011	0.021 ± 0.011	0.0185 ± 0.067	0.0045 ± 0.0078	-0.0015 ± 0.023	-0.005 ± 0.057	-0.0415 ± 0.0035	-0.0175 ± 0.0078	-0.0105 ± 0.052	-0.0015 ± 0.0092	0.0015 ± 0.022	0.0075 ± 0.013	0.017 ± 0.0085	0.075 ± 0.017	0.132 ± 0.035	0.15 ± 0.013	-0.004 ± 0.0057	-0.0095 ± 0.023	-0.022 ± 0.031
lMphg:M-CSF	-0.027 ± 0.045	-0.0395 ± 0.0035	-0.0475 ± 0.026	0.004 ± 0.018	-0.0045 ± 0.0021	-0.032 ± 0.011	-0.0885 ± 0.0064	-0.005 ± 0.0057	-0.006 ± 0.016	0.002 ± 0.0099	-0.011 ± 0.0099	-0.003 ± 0.013	-0.008 ± 0.0085	0.03 ± 0.0042	-0.046 ± 0.0028	-0.0305 ± 0.016	-0.0015 ± 0.021	-0.028 ± 0.014	-0.017 ± 0.0042	-0.0175 ± 0.019
lMphg:SRB	-0.0135 ± 0.011	-0.01 ± 0.0071	-0.0705 ± 0.013	-0.0055 ± 0.0078	-0.0055 ± 0.005	-0.014 ± 0.0085	-0.0365 ± 0.0021	-0.009 ± 0.0085	-0.0135 ± 0.0035	0.002 ± 0.0057	-0.0085 ± 0.00071	-0.002 ± 0.014	-0.004 ± 0.018	0.009 ± 0.02	-0.021 ± 0.021	-0.0155 ± 0.00071	-0.0265 ± 0.00071	0.0035 ± 0.00071	0.003 ± 0.0085	-0.0045 ± 0.0035
lMphg:SRB-Mphg	0.012 ± 0.016	0.014 ± 0.024	-0.0125 ± 0.03	-0.001 ± 0.031	-0.0085 ± 0.0021	-0.0155 ± 0.011	-0.0235 ± 0.0021	0.003 ± 0.023	0.004 ± 0.0071	-0.0155 ± 0.022	0.0125 ± 0.019	-0.0005 ± 0.021	0.007 ± 0.0071	0.0055 ± 0.0035	0.0005 ± 0.0035	0 ± 0.0042	-0.018 ± 0.02	-0.0075 ± 0.019	-0.0055 ± 0.005	0.0075 ± 0.022
lMphg:sIL-10	-0.023 ± 0.024	-0.042 ± 0.023	-0.561 ± 0.13	0.0005 ± 0.12	-0.077 ± 0.047	-0.117 ± 0.059	-0.311 ± 0.081	-0.044 ± 0.0057	-0.039 ± 0.0042	-0.022 ± 0.013	-0.044 ± 0.02	-0.033 ± 0.076	-0.0295 ± 0.012	-0.727 ± 0.099	-0.0935 ± 0.016	-0.115 ± 0.03	-0.169 ± 0.1	-0.0745 ± 0.037	-0.0775 ± 0.056	-0.102 ± 0.0078
